Laboratory results: patent US11311633B2, “Satiation peptides for weight loss and altered taste sensitivity” (University of Florida Research Foundation, Incorporated, priority 2016, dated 2022)

What was measured:
[1] = test system: mice; test: Exendin-4 oral spray prior to meals, food intake; type: in vivo
Description: PYY and GLP-1 are both produced in […] L-cells and secreted simultaneously into the blood stream in response to nutrient uptake. […] Similarly, a decrease in food intake of mice given Exendin-4 (Ex-4), a GLP-1 analog, in the form of an oral spray prior to meals was observed. Both of these peptides individually modulate body weight, we have evidence that, when used in combination, PYY and Ex-4 may have a synergistic effect on modulation of body weight.

[2] = test system: mice; test: PYY mouth spray, food intake after 24 hours fasting; type: in vivo
Experimental: FIGS. 4A-4D depict the effects of Peptide YY Mouth Spray.
Synthetic PYY was purchased from Bachem, Inc USA (Cat #H-6042) and diluted in sterile H2O. Sterile un-used perfume sample vials (Saphora) were utilized to administer PYY in the form of a mouth spray. It was estimated that the volume of one spray approximates to about […].
Mice were conditioned three times to 24 hours fasting starting at the beginning of the dark cycle and ending at the end of the light cycle. At the end of the fasting cycle and as a part of conditioned routine, a sterile water spray had been administered into the mouth. All the experiments were done during the first hour of the dark cycle after fasting. Once the dark cycle started, mice were sprayed once with either PYY or sterile H2O in a total volume of […] per spray. After the treatment, mice were returned to their cages and ten minutes later pre-weighted chow was provided. One hour later, the amount of consumed chow had been recorded by measuring the leftover amount. When the experiments were repeated, mice were fasted only once a week with the control and experimental groups rotated.

Row | Substance | food intake [1] | overall 24 hr period FI, experimental vs control group ([2]; after PYY mouth spray vs sterile H2O) | PYY dose response effect to FI ([2]; mouth spray, FI measured after one hour) | less food consumed in one hour compared to control group sprayed with H2O ([2]; one mouth spray, 5 μg per 100 g of body weight, after 24 hours fasting, average) [%]
1 | Exendin-4 | decrease | – | – | –
2 | PYY: Synthetic PYY purchased from Bachem (Cat #H-6042), diluted in sterile H2O, given as mouth spray [Peptide YY] | – | similar | significant | 15
